Measured values as given in patent EP2465840A1, “Terpene ether” (CABB GmbH, priority 2010, dated 2012).
“Also recorded” adds a separate entry of the source.

Assays:
Format in all cases: physicochemical
[1] = Brookfield viscosity (25°C) of cleaning formulation 24 h after addition of terpene ether
Description: Im Rahmen der vorliegenden Erfindung wird die Brookfield-Viskosität einer wässrigen Zusammensetzung vorzugsweise mittels einem RTV Brookfield-Viskosimeter bei 25°C ermittelt, besonders bevorzugt mit einer Spindel # 3 oder # 4.
Die in Tabelle 1 angegebene Reinigungsformulierung wurde untersucht. Tabelle 1: Reinigungsformulierung (WAS 15 %)
Zu dieser Formulierung wurden NP 1 oder NP 27 gegeben. Die gemessenen Brookfield-Viskositätswerte nach 24 Stunden werden in Tabelle 2 und 3 zusammengefasst. Tabelle 2: Brookfield-Viskosität (25°C)
Zu dieser Formulierung wurden NP 1 oder NP 27 sowie danach Natriumchlorid gegeben. Die gemessenen Brookfield-Viskositätswerte nach 24 Stunden werden in den folgenden Tabellen zusammengefasst. Tabelle 13: Brookfield-Viskosität (25°C)

[2] = Appearance of cleaning formulation after 24 h
[3] = pH of cleaning formulation after addition of terpene ether
[4] = Foam height and foam stability of formulation; details: for h1: Schaumhöhe 5 Minuten nach dem Mischen; for h1 / h0: Lösung mit 0,5 % WAS; for h0: Schaumhöhe eine Minute nach dem Mischen; for Stabilität: Schaumstabilität (h1/h0)*100
Description: Die Schaumhöhe der Formulierungen wurde nach folgender Methode ermittelt: In einem 400 ml Becher wurden 100 g einer wässrigen Lösung mit 0,5 % WAS hergestellt. Für eine Minute wurde die Lösung bei […] runden […] wurde die […] Minute […]0) und 5 […]. Die Schaumstabilität in % ergibt sich dann über (h1/h0)*100.

[5] = Visual evaluation of foam (foam appearance, bubble size); design: key to Blasengröße nach 1 min. / Blasengröße nach 5 min.: klein (1); mittel (2); mittel-groß (3); groß (4); sehr groß (5); key to Aussehen des Schaums nach 1 min. / Aussehen des Schaums nach 5 min.: verschwindend (1); locker (2); mittelkompakt (3); sehr kompakt (4)
Description: Die Qualität des Schaums wurde visuell nach der folgenden Methode festgestellt: 100 g der Lösung mit 0,5 % WAS wurden in einen 250 ml Glaszylinder mit Schraubverschluss und einem Innendurchmesser von 35 mm überführt. Der Zylinder wurde 10 mal gedreht und die Blasengröße und die Schaumkompaktheit wurden nach einer Minute nach dem Mischen und nach 5 Minuten ermittelt. Dabei erfolgte die Beurteilung auf der Grundlage der folgenden beschreibenden Parameter:
Aussehen des Schaums: verschwindend (1), locker (2), mittelkompakt (3), sehr kompakt (4)
Blasengröße: klein (1), mittel (2), mittel-groß (3), groß (4), sehr groß (5) Tabelle 4: […]

[6] = Reinigungsformulierung enthaltend Coco Glucosid, +0,5 %
[7] = Reinigungsformulierung enthaltend Coco Glucosid, +1 %
[8] = Reinigungsformulierung enthaltend Coco Glucosid, +5 %
[9] = Reinigungsformulierung enthaltend Dinatriumlaurylsuccinat (wässrig), +0,5 %, nach 24 Stunden
[10] = Reinigungsformulierung enthaltend Dinatriumlaurylsuccinat (wässrig), +1 %, nach 24 Stunden
[11] = Reinigungsformulierung enthaltend Dinatriumlaurylsuccinat (wässrig), +5 %, nach 24 Stunden
[12] = Reinigungsformulierung enthaltend Natriumlaurylethersulfat, Dinatriumcocoamphodiacetat, 0,5 % NaCl, +0,5 %, nach 24 Stunden
[13] = Reinigungsformulierung enthaltend Natriumlaurylethersulfat, Dinatriumcocoamphodiacetat, 0,5 % NaCl, +0,25 %, nach 24 Stunden
[14] = Reinigungsformulierung enthaltend Natriumlaurylethersulfat, Dinatriumcocoamphodiacetat, 0,5 % NaCl, +1 %, nach 24 Stunden
[15] = Reinigungsformulierung enthaltend Natriumlaurylethersulfat, Dinatriumcocoamphodiacetat, 0,5 % NaCl, +2 %, nach 24 Stunden
[16] = Reinigungsformulierung enthaltend Natriumlaurylethersulfat, Dinatriumcocoamphodiacetat, 1 % NaCl, +0,5 %, nach 24 Stunden
[17] = Reinigungsformulierung enthaltend Natriumlaurylethersulfat, Dinatriumcocoamphodiacetat, 1 % NaCl, +0,25 %, nach 24 Stunden
[18] = Reinigungsformulierung enthaltend Natriumlaurylethersulfat, Dinatriumcocoamphodiacetat, 1 % NaCl, +1 %, nach 24 Stunden
[19] = Reinigungsformulierung enthaltend Natriumlaurylethersulfat, Dinatriumcocoamphodiacetat, 1 % NaCl, +2 %, nach 24 Stunden
[20] = Reinigungsformulierung enthaltend Natriumlaurylethersulfat, Dinatriumcocoamphodiacetat, +0,5 %, nach 24 Stunden
[21] = Reinigungsformulierung enthaltend Natriumlaurylethersulfat, Dinatriumcocoamphodiacetat, +0,25 %, nach 24 Stunden
[22] = Reinigungsformulierung enthaltend Natriumlaurylethersulfat, Dinatriumcocoamphodiacetat, +1 %, nach 24 Stunden
[23] = Reinigungsformulierung enthaltend Natriumlaurylethersulfat, Dinatriumcocoamphodiacetat, +2 %, nach 24 Stunden
[24] = Reinigungsformulierung enthaltend Dinatriumlaurylsuccinat (wässrig), +0,5 %
[25] = Reinigungsformulierung enthaltend Dinatriumlaurylsuccinat (wässrig), +1 %
[26] = Reinigungsformulierung enthaltend Dinatriumlaurylsuccinat (wässrig), +5 %
[27] = Reinigungsformulierung enthaltend Coco Glucosid, 0,5 %
[28] = Reinigungsformulierung enthaltend Coco Glucosid, 1 %
[29] = Reinigungsformulierung enthaltend Coco Glucosid, 5 %
[30] = Reinigungsformulierung enthaltend Dinatriumlaurylsuccinat (wässrig), 0,5 %
[31] = Reinigungsformulierung enthaltend Dinatriumlaurylsuccinat (wässrig), 1 %
[32] = Reinigungsformulierung enthaltend Dinatriumlaurylsuccinat (wässrig), 5 %

Structure (SMILES): CC1(C)C2CCC1(C)C(OCC(O)CO)C2 (stereo not drawn) [NP 1, Glycerin-isobornylether]
- BF-Viskosität (2,5 rpm) [1, 6]: 18200 mPas
- BF-Viskosität (5 rpm) [1, 6]: 17800 mPas
- BF-Viskosität (2,5 rpm) [1, 7]: 3400 mPas
- BF-Viskosität (5 rpm) [1, 7]: 3300 mPas
- BF-Viskosität (2,5 rpm) [1, 8]: 1600 mPas
- BF-Viskosität (5 rpm) [1, 8]: 1100 mPas
- BF-Viskosität (2,5 rpm) [1, 9]: 6200 mPas
- BF-Viskosität (5 rpm) [1, 9]: 6100 mPas
- BF-Viskosität (2,5 rpm) [1, 10]: 17600 mPas
- BF-Viskosität (5 rpm) [1, 10]: 17200 mPas
- BF-Viskosität (2,5 rpm) [1, 11]: 3800 mPas
- BF-Viskosität (5 rpm) [1, 11]: 1800 mPas
- BF-Viskosität (2,5 rpm) [1, 12]: 22800 mPas
- BF-Viskosität (5 rpm) [1, 12]: 21000 mPas
- BF-Viskosität (2,5 rpm) [1, 13]: 17200 mPas
- BF-Viskosität (5 rpm) [1, 13]: 16100 mPas
- BF-Viskosität (2,5 rpm) [1, 14]: 32000 mPas
- BF-Viskosität (5 rpm) [1, 14]: 29600 mPas
- BF-Viskosität (2,5 rpm) [1, 15]: 12800 mPas
- BF-Viskosität (5 rpm) [1, 15]: 12600 mPas
- BF-Viskosität (2,5 rpm) [1, 16]: 37600 mPas
- BF-Viskosität (5 rpm) [1, 16]: 33200 mPas
- BF-Viskosität (2,5 rpm) [1, 17]: 31200 mPas
- BF-Viskosität (5 rpm) [1, 17]: 27600 mPas
- BF-Viskosität (2,5 rpm) [1, 18]: 38400 mPas
- BF-Viskosität (5 rpm) [1, 18]: 36000 mPas
- BF-Viskosität (2,5 rpm) [1, 19]: 4400 mPas
- BF-Viskosität (5 rpm) [1, 19]: 4200 mPas
- BF-Viskosität (2,5 rpm) [1, 20]: 10400 mPas
- BF-Viskosität (5 rpm) [1, 20]: 10200 mPas
- BF-Viskosität (2,5 rpm) [1, 21]: 7200 mPas
- BF-Viskosität (5 rpm) [1, 21]: 7200 mPas
- BF-Viskosität (2,5 rpm) [1, 22]: 22800 mPas
- BF-Viskosität (5 rpm) [1, 22]: 22000 mPas
- BF-Viskosität (2,5 rpm) [1, 23]: 18400 mPas
- BF-Viskosität (5 rpm) [1, 23]: 18200 mPas
- Aussehen nach 24 h [2, 6]: transparent; also recorded: Gel-flüssig
- Aussehen nach 24 h [2, 7]: transparent; also recorded: flüssig
- Aussehen nach 24 h [2, 8]: weiß and flüssig
- Aussehen nach 24 h [2, 24]: transparent; also recorded: flüssig
- Aussehen nach 24 h [2, 25]: transparent; also recorded: Gel-flüssig
- Aussehen nach 24 h [2, 26]: weiß and flüssig
- Aussehen nach 24 h ([2]; Reinigungsformulierung enthaltend Natriumlaurylethersulfat, Dinatriumcocoamphodiacetat, 0,5 % NaCl, +0,5 %): transparent Gel-flüssig
- Aussehen nach 24 h ([2]; Reinigungsformulierung enthaltend Natriumlaurylethersulfat, Dinatriumcocoamphodiacetat, 0,5 % NaCl, +0,25 %): transparent Gel-flüssig
- Aussehen nach 24 h ([2]; Reinigungsformulierung enthaltend Natriumlaurylethersulfat, Dinatriumcocoamphodiacetat, 0,5 % NaCl, +1 %): transparent Gel
- Aussehen nach 24 h ([2]; Reinigungsformulierung enthaltend Natriumlaurylethersulfat, Dinatriumcocoamphodiacetat, 0,5 % NaCl, +2 %): transparent flüssig
- Aussehen nach 24 h ([2]; Reinigungsformulierung enthaltend Natriumlaurylethersulfat, Dinatriumcocoamphodiacetat, 1 % NaCl, +0,5 %): transparent Gel
- Aussehen nach 24 h ([2]; Reinigungsformulierung enthaltend Natriumlaurylethersulfat, Dinatriumcocoamphodiacetat, 1 % NaCl, +0,25 %): transparent Gel
- Aussehen nach 24 h ([2]; Reinigungsformulierung enthaltend Natriumlaurylethersulfat, Dinatriumcocoamphodiacetat, 1 % NaCl, +1 %): transparent Gel
- Aussehen nach 24 h ([2]; Reinigungsformulierung enthaltend Natriumlaurylethersulfat, Dinatriumcocoamphodiacetat, 1 % NaCl, +2 %): transparent flüssig
- Aussehen nach 24 h ([2]; Reinigungsformulierung enthaltend Natriumlaurylethersulfat, Dinatriumcocoamphodiacetat, +0,5 %): transparent flüssig
- Aussehen nach 24 h ([2]; Reinigungsformulierung enthaltend Natriumlaurylethersulfat, Dinatriumcocoamphodiacetat, +0,25 %): transparent flüssig
- Aussehen nach 24 h ([2]; Reinigungsformulierung enthaltend Natriumlaurylethersulfat, Dinatriumcocoamphodiacetat, +1 %): transparent Gel-flüssig
- Aussehen nach 24 h ([2]; Reinigungsformulierung enthaltend Natriumlaurylethersulfat, Dinatriumcocoamphodiacetat, +2 %): transparent Gel-flüssig
- pH [3, 6]: 6
- pH [3, 7]: 6
- pH [3, 8]: 6
- pH [3, 24]: 6,3
- pH [3, 25]: 6,3
- pH [3, 26]: 6,3
- h1 [4, 27]: 200 mm
- h0 [4, 27]: 230 mm
- Stabilität [4, 27]: 87%
- h1 [4, 28]: 210 mm
- h0 [4, 28]: 235 mm
- Stabilität [4, 28]: 89%
- h1 [4, 29]: 230 mm
- h0 [4, 29]: 260 mm
- Stabilität [4, 29]: 88%
- h1 [4, 30]: 220 mm
- h0 [4, 30]: 245 mm
- Stabilität [4, 30]: 90%
- h1 [4, 31]: 225 mm
- h0 [4, 31]: 250 mm
- Stabilität [4, 31]: 90%
- h1 [4, 32]: 225 mm
- h0 [4, 32]: 250 mm
- Stabilität [4, 32]: 90%
- Aussehen des Schaums nach 1 min. [5, 6]: 3
- Aussehen des Schaums nach 5 min. [5, 6]: 1
- Blasengröße nach 1 min. [5, 6]: 3
- Blasengröße nach 5 min. [5, 6]: 5
- Aussehen des Schaums nach 1 min. [5, 7]: 3
- Aussehen des Schaums nach 5 min. [5, 7]: 1
- Blasengröße nach 1 min. [5, 7]: 3
- Blasengröße nach 5 min. [5, 7]: 5
- Aussehen des Schaums nach 1 min. [5, 8]: 3
- Aussehen des Schaums nach 5 min. [5, 8]: 1
- Blasengröße nach 1 min. [5, 8]: 3
- Blasengröße nach 5 min. [5, 8]: 5
- Aussehen des Schaums nach 1 min. [5, 24]: 3
- Aussehen des Schaums nach 5 min. [5, 24]: 2
- Blasengröße nach 1 min. [5, 24]: 3
- Blasengröße nach 5 min. [5, 24]: 4
- Aussehen des Schaums nach 1 min. [5, 25]: 3
- Aussehen des Schaums nach 5 min. [5, 25]: 2
- Blasengröße nach 1 min. [5, 25]: 3
- Blasengröße nach 5 min. [5, 25]: 4
- Aussehen des Schaums nach 1 min. [5, 26]: 3
- Aussehen des Schaums nach 5 min. [5, 26]: 1
- Blasengröße nach 1 min. [5, 26]: 4
- Blasengröße nach 5 min. [5, 26]: 5
